Experiments:
recombinant human Mcl-1 = target: T1, recombinant human Mcl-1 (Homo sapiens, UniProt Q07820); experiment: Cell free Mcl-1:Bim affinity assay (Mcl-1 HTRF, TR-FRET); type: binding; details: inhibition of Mcl-1/Bim interaction
T1 construct: C-terminally 6×His tagged Mcl-1 containing residues 171-327; made in house

[1] = target: T2, Mcl-1/Bak protein-protein interactions (Homo sapiens, UniProt Q07820); experiment: Cell-based split luciferase complementation assay; details: HEK 293 M cells, serum-free, 4 h
T2 construct: expressed in transfected cells; host or cells: HEK 293 M cells, transient transfection

OPM-2 = experiment: Cell viability assay (OPM-2 10 FBS, CellTiter-Glo); type: cell-based, human; details: OPM-2 cells

T2 sequence (Q07820 whole entry): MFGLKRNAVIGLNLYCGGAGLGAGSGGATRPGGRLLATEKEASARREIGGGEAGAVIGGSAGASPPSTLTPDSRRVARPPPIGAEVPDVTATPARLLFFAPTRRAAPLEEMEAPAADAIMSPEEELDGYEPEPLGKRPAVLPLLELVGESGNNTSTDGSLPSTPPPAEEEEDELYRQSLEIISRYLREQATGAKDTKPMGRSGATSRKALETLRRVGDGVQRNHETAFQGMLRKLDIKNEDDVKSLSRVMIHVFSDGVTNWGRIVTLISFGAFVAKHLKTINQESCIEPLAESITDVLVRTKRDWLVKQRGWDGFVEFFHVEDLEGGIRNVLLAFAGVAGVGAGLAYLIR
T1 sequence (Q07820 171-327): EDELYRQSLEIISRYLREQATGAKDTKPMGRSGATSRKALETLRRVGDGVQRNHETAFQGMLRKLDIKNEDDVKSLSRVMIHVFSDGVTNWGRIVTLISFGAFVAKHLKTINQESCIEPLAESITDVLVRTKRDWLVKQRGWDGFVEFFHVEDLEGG

Structure (SMILES)	IC50 (recombinant human Mcl-1) [nM]	IC50 [1] [nM]	IC50 (OPM-2; 16 h) [nM]	IC50 (OPM-2; Homo sapiens, OPM-2, 16 h) [nM]
CO[C@H]1/C=C/C[C@H](C)CS(=O)(=O)NC(=O)c2ccc3c(c2)N(C[C@@H]2CC[C@H]21)C[C@@]1(CCCc2cc(Cl)ccc21)CO3 (single isomer, unassigned) [Example 31]	5.8	543	3560	
CC(C)[C@@H]1[C@H](C)C/C=C/[C@H](O)[C@@H]2CC[C@H]2CN2C[C@@]3(CCCc4cc(Cl)ccc43)COc3ccc(cc32)C(=O)NS1(=O)=O (single isomer, unassigned) [Example 50]	1.01	232	1320	
CC1(C)C/C=C/[C@H](O)[C@@H]2CC[C@H]2CN2C[C@@]3(CCCc4cc(Cl)ccc43)COc3ccc(cc32)C(=O)NS(=O)(=O)C1 [Example 1, (1S,3′R,6′R,7′S,8′E)-6-Chloro-7′-Hydroxy-11′,11′-Dimethyl-3,4-Dihydro-2H,15′H-Spiro[Naphthalene-1,22′-[20]Oxa[13]Thia[1,14]Diazatetracyclo[14.7.2.0^3,6.0^19,24]Pentacos A[8,16,18,24]Tetraen]-15′-One 13′,13′-Dioxide]	0.852	163		1880
CC(C)[C@@H]1[C@H](C)C/C=C/[C@H](O)[C@@H]2CC[C@H]2CN2C[C@@]3(CCCc4cc(Cl)ccc43)COc3ccc(cc32)C(=O)NS1(=O)=O (single isomer, unassigned) [Example 49]	0.317	46.2	184	

— patent publication US11685747B2, “Compounds that inhibit MCL-1 protein” (AMGEN INC., priority 2014, dated 2023)
